Each structure is given as a SMILES string. The source made the active and inactive calls. A value given as a limit tells only on which side of the number the result lay.

For assay [1], the target named is T1, Carboxy-terminal domain RNA polymerase II polypeptide A small phosphatase 1 (Homo sapiens, UniProt Q9GZU7).
T1 sequence (Q9GZU7 whole entry): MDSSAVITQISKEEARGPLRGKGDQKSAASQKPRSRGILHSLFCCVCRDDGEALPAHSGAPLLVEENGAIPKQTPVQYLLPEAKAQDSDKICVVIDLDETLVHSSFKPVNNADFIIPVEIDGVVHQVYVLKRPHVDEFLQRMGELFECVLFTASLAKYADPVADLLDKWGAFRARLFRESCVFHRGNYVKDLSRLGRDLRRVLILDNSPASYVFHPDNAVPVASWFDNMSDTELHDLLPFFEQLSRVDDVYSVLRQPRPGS
Put plainly: CTDSP1 inhibitors, concentration-response, biochemical, absorbance readout, ultra-high-throughput screen actives (AID 540297). Type of assay: functional.

The target in assay [2] is T2, Tyrosine-protein phosphatase non-receptor type 11 (Homo sapiens, UniProt Q06124).
T2 sequence (Q06124 whole entry): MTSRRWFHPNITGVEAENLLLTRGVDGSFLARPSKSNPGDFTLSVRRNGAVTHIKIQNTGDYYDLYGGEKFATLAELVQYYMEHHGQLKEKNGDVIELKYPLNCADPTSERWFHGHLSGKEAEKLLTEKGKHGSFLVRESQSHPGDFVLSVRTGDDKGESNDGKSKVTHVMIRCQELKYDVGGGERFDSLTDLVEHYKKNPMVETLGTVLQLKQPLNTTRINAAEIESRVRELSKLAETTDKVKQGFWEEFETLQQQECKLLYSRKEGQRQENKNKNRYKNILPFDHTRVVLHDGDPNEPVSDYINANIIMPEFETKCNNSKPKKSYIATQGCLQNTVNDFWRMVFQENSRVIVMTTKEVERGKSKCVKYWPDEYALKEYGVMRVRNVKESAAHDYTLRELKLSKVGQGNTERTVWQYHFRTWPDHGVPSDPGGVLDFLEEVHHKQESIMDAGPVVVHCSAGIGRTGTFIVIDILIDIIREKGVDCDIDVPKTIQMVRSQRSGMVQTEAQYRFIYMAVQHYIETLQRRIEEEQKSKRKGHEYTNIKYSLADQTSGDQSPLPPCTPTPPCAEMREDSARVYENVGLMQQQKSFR
The experiment in a line: PTPN11 enzyme inhibitors – biochemical, selectivity assay for STEP inhibitor project, dose response (AID 602367). Type of assay: functional. Conditions: read-out: IC50_Mean.

The target of assay [3] is Dual specificity protein phosphatase 3 (Homo sapiens, UniProt P51452). Put plainly: VHR phosphatase inhibition, dose response, selectivity assay for STEP inhibitor project, biochemical (AID 602374). Type of assay: functional. Particulars: read-out: IC50_Mean.
Assay [4] concerns the target T3, Tyrosine-protein phosphatase non-receptor type 5 (Homo sapiens, UniProt P54829).
T3 sequence (P54829 whole entry): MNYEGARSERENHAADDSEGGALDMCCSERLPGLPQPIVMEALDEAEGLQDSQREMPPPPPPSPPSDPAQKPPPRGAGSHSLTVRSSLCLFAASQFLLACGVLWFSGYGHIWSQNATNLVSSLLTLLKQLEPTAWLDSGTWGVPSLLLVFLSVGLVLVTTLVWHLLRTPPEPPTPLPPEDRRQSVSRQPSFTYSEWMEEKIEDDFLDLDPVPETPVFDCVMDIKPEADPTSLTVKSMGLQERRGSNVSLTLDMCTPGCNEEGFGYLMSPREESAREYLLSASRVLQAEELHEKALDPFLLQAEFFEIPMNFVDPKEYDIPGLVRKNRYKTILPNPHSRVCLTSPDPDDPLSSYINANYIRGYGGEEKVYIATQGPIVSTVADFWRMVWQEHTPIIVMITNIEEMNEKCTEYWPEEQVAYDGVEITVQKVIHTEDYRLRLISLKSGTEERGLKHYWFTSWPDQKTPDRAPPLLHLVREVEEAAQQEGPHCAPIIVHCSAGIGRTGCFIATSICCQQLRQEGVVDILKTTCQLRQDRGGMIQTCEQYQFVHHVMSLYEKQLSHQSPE
Put plainly: PTPN5 enzyme inhibition – biochemical, fluorescence intensity, uHTS hits, confirmation (AID 602372). Conditions: read-out: IC50_Mean. The class given is functional.

The nature of assay [5]: nonselective StAR promoter luciferase inhibitors – cell-based, luminescence, luciferase reporter, counter-screen for LRH-1 inverse agonist project, dose response (AID 651969). Type of assay: functional.
For a further assay, the target named is Steroidogenic factor 1 (Homo sapiens, UniProt Q13285). The experiment in a line: Counterscreen for inverse agonists of the liver receptor homolog-1 (LRH-1; NR5A2): Luminescence-based cell-based high throughput dose response assay to identify inverse agonists of the Steroidogenic Factor 1 Nuclear Receptor (SF1; NR5A1). The class given is functional.
In assay [6] the target is Nuclear receptor subfamily 5 group A member 2 (Homo sapiens, UniProt O00482). The class given is functional, cell-based.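 Note: HEK293T cells transfected with LRH-1 and a StAR promoter luciferase reporter; potency for inhibitors that lower LRH-1 driven reporter light.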
For assay [7], the target named is Glucose-6-phosphate 1-dehydrogenase (Homo sapiens, UniProt P11413). The experiment in a line: inhibition of Homo sapiens G6PD, dose series – biochemical, fluorescence, selectivity assay for P. falciparum G6PD inhibitor project, dose response (AID 504792). Type of assay: functional.
A short description of assay [8]: viability loss in HeLa cells – cytotoxicity control for MgcRacGAP inhibitor project, dose response (AID 624300). The class given is functional.
Assay [9] concerns the target T4, Rac GTPase-activating protein 1 (Homo sapiens, UniProt Q9H0H5).
T4 sequence (Q9H0H5 whole entry): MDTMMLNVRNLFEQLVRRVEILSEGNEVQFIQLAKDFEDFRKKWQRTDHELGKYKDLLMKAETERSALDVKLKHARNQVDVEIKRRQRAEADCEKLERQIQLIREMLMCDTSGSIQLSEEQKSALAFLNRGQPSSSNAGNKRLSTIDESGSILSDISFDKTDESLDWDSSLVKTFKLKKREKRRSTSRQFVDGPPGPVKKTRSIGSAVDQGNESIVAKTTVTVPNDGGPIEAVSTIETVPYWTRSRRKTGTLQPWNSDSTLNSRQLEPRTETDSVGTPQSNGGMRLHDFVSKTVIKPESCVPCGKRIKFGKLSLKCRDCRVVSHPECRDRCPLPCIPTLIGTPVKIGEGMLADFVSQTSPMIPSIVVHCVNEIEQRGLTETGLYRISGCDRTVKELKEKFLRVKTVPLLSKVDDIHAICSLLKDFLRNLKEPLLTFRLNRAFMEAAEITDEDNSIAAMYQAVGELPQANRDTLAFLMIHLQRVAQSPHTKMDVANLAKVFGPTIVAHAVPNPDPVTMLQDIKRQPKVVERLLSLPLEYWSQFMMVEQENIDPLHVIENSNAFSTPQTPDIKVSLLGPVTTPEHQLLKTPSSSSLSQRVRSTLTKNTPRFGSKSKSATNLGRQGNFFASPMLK
Put plainly: blockers of MgcRacGAP-driven Rac1 GTP hydrolysis – biochemical, ADP Hunter fluorescence, primary and confirmatory, confirmation (AID 624330). Type of assay: functional.

The target in a further assay is Mu-type opioid receptor (Homo sapiens, UniProt P35372). The class given is functional, cell-based.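 Note: U2OS cells with beta-arrestin recruitment to OPRM1 by beta-gal complementation.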
The target in assay [10] is 5-hydroxytryptamine receptor 2A (Mus musculus, UniProt P35363). The class given is functional, cell-based.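 Note: CHO-K1 cells with tagged receptor and beta-arrestin; agonist potency measured as compound-induced activation of the receptor.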
The target in assay [11] is T5, Zinc finger protein mex-5 (Caenorhabditis elegans, UniProt Q9XUB2).
T5 sequence (Q9XUB2 whole entry): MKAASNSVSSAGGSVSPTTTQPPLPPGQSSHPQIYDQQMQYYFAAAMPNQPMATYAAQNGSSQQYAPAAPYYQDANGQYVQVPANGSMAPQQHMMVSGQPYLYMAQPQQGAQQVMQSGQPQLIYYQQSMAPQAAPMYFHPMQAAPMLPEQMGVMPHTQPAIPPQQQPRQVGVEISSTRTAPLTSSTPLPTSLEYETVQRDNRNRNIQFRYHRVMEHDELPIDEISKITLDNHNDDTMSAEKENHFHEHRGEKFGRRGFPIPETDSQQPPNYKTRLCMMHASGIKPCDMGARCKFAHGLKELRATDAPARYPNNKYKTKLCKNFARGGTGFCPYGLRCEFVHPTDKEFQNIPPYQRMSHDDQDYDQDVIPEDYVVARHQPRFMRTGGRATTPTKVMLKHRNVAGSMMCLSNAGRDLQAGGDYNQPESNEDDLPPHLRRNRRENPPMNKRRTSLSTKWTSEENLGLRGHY
The experiment in a line: potency of MEX-5 RNA-binding blockers – biochemical, C. elegans, fluorescence polarization, dose response (AID 1960).

The target of assay [12] is T6, RNA-binding protein pos-1 (Caenorhabditis elegans, UniProt G5EF15).
T6 sequence (G5EF15 whole entry): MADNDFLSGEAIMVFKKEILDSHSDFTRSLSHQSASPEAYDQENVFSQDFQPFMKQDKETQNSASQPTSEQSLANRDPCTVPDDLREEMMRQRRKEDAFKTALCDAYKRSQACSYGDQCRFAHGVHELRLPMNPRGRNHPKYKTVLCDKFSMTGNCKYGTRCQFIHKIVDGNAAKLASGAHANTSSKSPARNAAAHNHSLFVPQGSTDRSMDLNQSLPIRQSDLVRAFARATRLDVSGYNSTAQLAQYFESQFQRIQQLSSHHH
The experiment in a line: disruptors of C. elegans POS-1 RNA interaction – biochemical, fluorescence polarization, dose response (AID 1964).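 Note: purified POS-1 fused to maltose binding protein made in E. coli; potency of compounds blocking POS-1 binding to fluorescent RNA.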

Sequence of Steroidogenic factor 1 (Q13285 whole entry): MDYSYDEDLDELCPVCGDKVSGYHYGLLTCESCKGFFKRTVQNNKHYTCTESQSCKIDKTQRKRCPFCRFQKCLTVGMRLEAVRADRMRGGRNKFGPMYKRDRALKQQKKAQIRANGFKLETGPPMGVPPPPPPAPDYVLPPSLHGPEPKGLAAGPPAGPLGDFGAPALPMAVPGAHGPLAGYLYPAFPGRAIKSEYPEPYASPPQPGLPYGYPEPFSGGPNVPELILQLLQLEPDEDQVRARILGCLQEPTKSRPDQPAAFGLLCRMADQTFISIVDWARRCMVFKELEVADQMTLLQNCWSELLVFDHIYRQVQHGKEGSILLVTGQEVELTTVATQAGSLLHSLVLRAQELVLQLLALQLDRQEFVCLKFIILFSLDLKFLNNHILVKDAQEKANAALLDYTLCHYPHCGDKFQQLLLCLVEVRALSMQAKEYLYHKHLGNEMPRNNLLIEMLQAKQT
Sequence of Nuclear receptor subfamily 5 group A member 2 (O00482 whole entry): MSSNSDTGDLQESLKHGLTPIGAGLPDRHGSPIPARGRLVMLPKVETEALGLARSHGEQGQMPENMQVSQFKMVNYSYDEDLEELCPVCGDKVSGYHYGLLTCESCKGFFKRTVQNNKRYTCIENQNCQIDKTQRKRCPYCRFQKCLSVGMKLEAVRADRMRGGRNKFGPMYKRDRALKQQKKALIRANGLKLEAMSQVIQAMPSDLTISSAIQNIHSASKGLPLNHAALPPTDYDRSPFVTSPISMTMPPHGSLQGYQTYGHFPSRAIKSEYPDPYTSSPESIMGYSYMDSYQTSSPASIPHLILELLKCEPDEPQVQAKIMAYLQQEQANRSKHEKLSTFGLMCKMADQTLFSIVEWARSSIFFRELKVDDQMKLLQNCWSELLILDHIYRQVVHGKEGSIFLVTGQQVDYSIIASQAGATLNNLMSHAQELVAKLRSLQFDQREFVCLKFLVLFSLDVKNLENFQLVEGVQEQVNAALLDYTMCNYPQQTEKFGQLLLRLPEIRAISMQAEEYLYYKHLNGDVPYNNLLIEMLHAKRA
Sequence of Glucose-6-phosphate 1-dehydrogenase (P11413 whole entry): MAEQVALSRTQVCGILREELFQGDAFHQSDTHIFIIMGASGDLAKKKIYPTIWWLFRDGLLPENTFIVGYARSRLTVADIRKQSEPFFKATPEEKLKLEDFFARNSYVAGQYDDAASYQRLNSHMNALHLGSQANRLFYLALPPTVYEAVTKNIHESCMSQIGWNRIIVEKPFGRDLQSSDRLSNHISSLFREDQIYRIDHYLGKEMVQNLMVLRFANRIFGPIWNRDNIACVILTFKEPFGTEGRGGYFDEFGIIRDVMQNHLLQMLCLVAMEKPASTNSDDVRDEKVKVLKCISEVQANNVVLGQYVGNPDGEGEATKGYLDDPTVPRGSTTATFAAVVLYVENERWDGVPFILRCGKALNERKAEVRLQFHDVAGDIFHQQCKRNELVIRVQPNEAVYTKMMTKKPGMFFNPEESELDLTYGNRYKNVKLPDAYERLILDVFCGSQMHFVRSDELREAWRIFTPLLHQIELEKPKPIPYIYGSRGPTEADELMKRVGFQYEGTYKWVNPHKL
Sequence of Mu-type opioid receptor (P35372 whole entry): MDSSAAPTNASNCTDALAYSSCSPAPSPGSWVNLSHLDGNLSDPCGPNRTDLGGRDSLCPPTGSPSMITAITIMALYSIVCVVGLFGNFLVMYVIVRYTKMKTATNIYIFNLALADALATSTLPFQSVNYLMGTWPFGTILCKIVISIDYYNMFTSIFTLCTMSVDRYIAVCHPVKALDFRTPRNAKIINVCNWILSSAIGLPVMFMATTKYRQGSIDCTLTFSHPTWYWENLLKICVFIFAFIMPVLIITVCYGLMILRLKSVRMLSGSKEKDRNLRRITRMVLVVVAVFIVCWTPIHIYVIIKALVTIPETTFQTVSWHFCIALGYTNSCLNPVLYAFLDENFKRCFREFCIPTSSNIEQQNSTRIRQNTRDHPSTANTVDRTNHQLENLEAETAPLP
Sequence of 5-hydroxytryptamine receptor 2A (P35363 whole entry): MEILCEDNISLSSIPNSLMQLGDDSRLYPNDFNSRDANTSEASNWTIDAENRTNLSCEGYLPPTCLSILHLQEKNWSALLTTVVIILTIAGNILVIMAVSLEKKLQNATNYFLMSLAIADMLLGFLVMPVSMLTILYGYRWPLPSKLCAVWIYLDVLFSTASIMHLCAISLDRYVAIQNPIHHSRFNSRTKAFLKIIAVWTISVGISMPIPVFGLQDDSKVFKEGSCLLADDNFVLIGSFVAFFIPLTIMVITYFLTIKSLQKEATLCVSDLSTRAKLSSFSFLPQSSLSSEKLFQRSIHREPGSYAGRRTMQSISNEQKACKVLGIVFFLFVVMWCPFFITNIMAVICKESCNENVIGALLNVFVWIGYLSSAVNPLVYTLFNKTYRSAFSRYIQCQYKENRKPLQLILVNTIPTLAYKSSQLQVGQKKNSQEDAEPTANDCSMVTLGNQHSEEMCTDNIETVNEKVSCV
Sequence of Dual specificity protein phosphatase 3 (P51452 whole entry): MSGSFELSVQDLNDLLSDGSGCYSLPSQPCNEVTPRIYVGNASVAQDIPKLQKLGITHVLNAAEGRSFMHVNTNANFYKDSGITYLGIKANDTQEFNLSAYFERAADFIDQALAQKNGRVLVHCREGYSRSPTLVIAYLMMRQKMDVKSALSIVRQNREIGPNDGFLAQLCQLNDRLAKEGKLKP

As to `O=C(N/N=C/c1ccc(Br)cc1)c1ccc(Br)o1`, the IC50 in [1] is 6.85 µM (active); in [2] it was 9.11 µM (active); in assay [3] it was 8.79 µM (active); in [4], 17.1 µM (active).

On to `Cc1nn(Cc2ccccc2)c(C)c1C(=O)OCC(=O)Nc1ccccc1SCC#N`, for which the IC50 was 35.9 µM (inactive) in assay [5], 2.41 µM (active) at Steroidogenic factor 1 and 1.33 µM (active) in assay [6].

Take `COc1ccc(CCNC(=O)COC(=O)C23CC4CC(CC(C4)C2)C3)cc1`: the IC50 is 35.9 µM (inactive) in [5], 2.17 µM (active) at Steroidogenic factor 1 and 28.6 µM (inactive) in assay [6].

Consider `Cn1c(=O)c2c(nc(S)n2CCCc2ccccc2)n(C)c1=O`, for which the IC50 in [7] is 60.7 µM (inactive); in assay [9], 16.1 µM (active). In assay [8], the CC50 is 100 µM (active).

On to `Cc1cccc(CN2CCN(c3ccccn3)CC2)c1`, for which the values for the EC50 (on Mu-type opioid receptor; in [10]) were 92.5 µM (inactive) and 0.128 µM (active), respectively.

On to `O=C1NC(=O)N(c2ccccc2)C(=O)/C1=C/c1coc2ccc(O)cc2c1=O`, for which the EC50 in assay [11] and in [12] was > 300 µM (not active) in each case. The cytotoxic concentration (CC50) in assay [8] is 100 µM (active). In assay [9], the IC50 was 110 µM (active).

In the case of `CCOc1ccc(NC(=O)CSc2nncc(=O)n2N)cc1`, the IC50 was 35.9 µM (inactive) in assay [5], 12 µM (inactive) on Steroidogenic factor 1 and 35.9 µM (inactive) in assay [6].

The record behind these values is ChEMBL document CHEMBL1201862, “PubChem BioAssay data set” (2004).
